# Values of other authors, collected in patent US20100196443A1, “USE OF CORDYCEPS SPECIES OR EXTRACT THEREOF IN THE EGG PRODUCTION” (A P NUTRIPHARM PTE. LTD., priority 2007, published 2010).
# Test system: RNA cell
# Details: Siev et al., 1969
structure (smiles),measurement,value
"Nc1ncnc2c1ncn2[C@@H]1O[C@H](CO)C[C@H]1O [cordycepin, 3-deoxyadenosine]",nucleolar RNA synthesis,can inhibit nucleolar RNA synthesis
